ChEMBL document CHEMBL1154088, “Synthesis, biological evaluation and docking studies of novel benzopyranone congeners for their expected activity as anti-inflammatory, analgesic and antipyretic agents” (Bioorg Med Chem, 2009)

Tests used:
Mus musculus [1] = experiment: Analgesic activity in mouse assessed as protection against acetic acid-induced writhing at one-tenth of LD50 administered subcutaneously 30 mins before acetic acid challenge measured after 4 hrs relative to control; assay type: functional
[2] = Toxicity in sc dosed albino mouse up to 24 hrs; assay type: organism-based; conditions: in vivo
Mus musculus [3] = experiment: Analgesic activity in mouse assessed as protection against acetic acid-induced writhing at one-tenth of LD50 administered subcutaneously 30 mins before acetic acid challenge measured after 2 hrs relative to control; assay type: functional
Rattus norvegicus [4] = experiment: Antipyretic activity against yeast-induced hyperpyrexia in hyperthermic rat assessed as rectal temperature at one-tenth of LD50 administered subcutaneously 18 hrs after yeast challenge measured after 2 hrs (Rvb=39.11 +/- 0.26 degC); assay type: functional
Rattus norvegicus [5] = experiment: Antipyretic activity against yeast-induced hyperpyrexia in hyperthermic rat assessed as rectal temperature at one-tenth of LD50 administered subcutaneously 18 hrs after yeast challenge measured after 3 hrs (Rvb=39.20 +/- 0.24 degC); assay type: functional
Rattus norvegicus [6] = experiment: Antipyretic activity against yeast-induced hyperpyrexia in hyperthermic rat assessed as rectal temperature at one-tenth of LD50 administered subcutaneously 18 hrs after yeast challenge measured after 1 hr (Rvb=39.24 +/- 0.22 degC); assay type: functional
Rattus norvegicus [7] = experiment: Antipyretic activity against yeast-induced hyperpyrexia in hyperthermic rat assessed as rectal temperature at one-tenth of LD50 administered subcutaneously 18 hrs after yeast challenge measured after 4 hrs (Rvb=39.17 +/- 0.20 degC); assay type: functional
Rattus norvegicus [8] = experiment: Antiinflammatory activity against carrageenan-induced foot paw edema in rat assessed as reduction in paw size at one-tenth of LD50 administered subcutaneously 30 mins before carrageenan challenge measured after 3 hrs relative to control; assay type: functional; set-up: scale not given: the % may be the effect or the level left
Mus musculus [9] = experiment: Analgesic activity in mouse assessed as protection against acetic acid-induced writhing at one-tenth of LD50 administered subcutaneously 30 mins before acetic acid challenge measured after 1 hr relative to control; assay type: functional
Mus musculus [10] = experiment: Analgesic activity in mouse assessed as protection against acetic acid-induced writhing at one-tenth of LD50 administered subcutaneously 30 mins before acetic acid challenge measured after 3 hrs relative to control; assay type: functional

CN(C)c1ccc(C2CC(c3c(O)ccc4c(-c5ccccc5)cc(=O)oc34)=NN2c2ccccc2)cc1 (stereo not given)
Activity (Mus musculus [1]): 6.82%
LD50 at 24 h [2]: 330 mg/kg
Activity (Mus musculus [3]): 40.23%
Activity (Rattus norvegicus [4]): 38.01 °C
Activity (Rattus norvegicus [5]): 38.43 °C
Activity (Rattus norvegicus [6]): 38.4 °C
Activity (Rattus norvegicus [7]): 38.88 °C
Activity (Rattus norvegicus [8]): 5.78%
Activity (Mus musculus [9]): 39.76%
Activity (Mus musculus [10]): 20.47%

N#Cc1c(-c2cccnc2)cc(-c2c(O)ccc3c(-c4ccccc4)cc(=O)oc23)[nH]c1=O
Activity (Mus musculus [1]): 0.95%
LD50 at 24 h [2]: 370 mg/kg
Activity (Mus musculus [3]): 8.8%
Activity (Rattus norvegicus [4]): 38.81 °C
Activity (Rattus norvegicus [5]): 38.81 °C
Activity (Rattus norvegicus [6]): 38.71 °C
Activity (Rattus norvegicus [7]): 38.91 °C
Activity (Rattus norvegicus [8]): 7.17%
Activity (Mus musculus [9]): 8.8%
Activity (Mus musculus [10]): 3.57%

CN(C)c1ccc(-c2cc(-c3c(O)ccc4c(-c5ccccc5)cc(=O)oc34)[nH]c(=O)c2C#N)cc1
Activity (Mus musculus [1]): 2.35%
LD50 at 24 h [2]: 390 mg/kg
Activity (Mus musculus [3]): 7.54%
Activity (Rattus norvegicus [4]): 38.91 °C
Activity (Rattus norvegicus [5]): 38.9 °C
Activity (Rattus norvegicus [6]): 38.91 °C
Activity (Rattus norvegicus [7]): 39.11 °C
Activity (Rattus norvegicus [8]): 7.24%
Activity (Mus musculus [9]): 9.66%
Activity (Mus musculus [10]): 7.54%

CN(C)c1ccc(C2CC(c3c(O)ccc4c(-c5ccccc5)cc(=O)oc34)=NN2c2ccc([N+](=O)[O-])cc2[N+](=O)[O-])cc1 (stereo not given)
Activity (Mus musculus [1]): 7.29%
LD50 at 24 h [2]: 330 mg/kg
Activity (Mus musculus [3]): 35.29%
Activity (Rattus norvegicus [4]): 38.1 °C
Activity (Rattus norvegicus [5]): 38.42 °C
Activity (Rattus norvegicus [6]): 38.54 °C
Activity (Rattus norvegicus [7]): 38.91 °C
Activity (Rattus norvegicus [8]): 17.06%
Activity (Mus musculus [9]): 36.94%
Activity (Mus musculus [10]): 19.05%

N#Cc1c(-c2ccc(Cl)cc2)cc(-c2c(O)ccc3c(-c4ccccc4)cc(=O)oc23)[nH]c1=O
Activity (Mus musculus [1]): 1.66%
LD50 at 24 h [2]: 310 mg/kg
Activity (Mus musculus [3]): 1.18%
Activity (Rattus norvegicus [4]): 38.84 °C
Activity (Rattus norvegicus [5]): 38.81 °C
Activity (Rattus norvegicus [6]): 38.91 °C
Activity (Rattus norvegicus [7]): 38.91 °C
Activity (Rattus norvegicus [8]): 16.35%
Activity (Mus musculus [9]): 0%
Activity (Mus musculus [10]): 0.71%

COc1ccc(C2CC(c3c(O)ccc4c(-c5ccccc5)cc(=O)oc34)=NN2c2ccc([N+](=O)[O-])cc2[N+](=O)[O-])cc1 (stereo not given)
Activity (Mus musculus [1]): 3.58%
LD50 at 24 h [2]: 370 mg/kg
Activity (Mus musculus [3]): 4.78%
Activity (Rattus norvegicus [4]): 38.91 °C
Activity (Rattus norvegicus [5]): 38.91 °C
Activity (Rattus norvegicus [6]): 38.81 °C
Activity (Rattus norvegicus [7]): 38.91 °C
Activity (Rattus norvegicus [8]): 11.61%
Activity (Mus musculus [9]): 3.58%
Activity (Mus musculus [10]): 3.58%

COc1cc(OC)c(-c2cc(-c3c(O)ccc4c(-c5ccccc5)cc(=O)oc34)[nH]c(=O)c2C#N)c(OC)c1
Activity (Mus musculus [1]): 1.41%
LD50 at 24 h [2]: 390 mg/kg
Activity (Mus musculus [3]): 0.7%
Activity (Rattus norvegicus [4]): 38.91 °C
Activity (Rattus norvegicus [5]): 38.81 °C
Activity (Rattus norvegicus [6]): 38.91 °C
Activity (Rattus norvegicus [7]): 38.91 °C
Activity (Rattus norvegicus [8]): 5.78%
Activity (Mus musculus [9]): 0.47%
Activity (Mus musculus [10]): 0.7%

C/C(=N\c1ccccc1N)c1c(O)ccc2c(-c3ccccc3)cc(=O)oc12
Activity (Mus musculus [1]): 1.64%
LD50 at 24 h [2]: 370 mg/kg
Activity (Mus musculus [3]): 12.44%
Activity (Rattus norvegicus [4]): 38.41 °C
Activity (Rattus norvegicus [5]): 38.81 °C
Activity (Rattus norvegicus [6]): 38.61 °C
Activity (Rattus norvegicus [7]): 38.9 °C
Activity (Rattus norvegicus [8]): 8.7%
Activity (Mus musculus [9]): 9.85%
Activity (Mus musculus [10]): 9.62%

N#Cc1c(-c2ccc(Cl)cc2)cc(-c2c(O)ccc3c(-c4ccccc4)cc(=O)oc23)[nH]c1=N
Activity (Mus musculus [1]): 3.52%
LD50 at 24 h [2]: 390 mg/kg
Activity (Mus musculus [3]): 2.58%
Activity (Rattus norvegicus [4]): 39 °C
Activity (Rattus norvegicus [5]): 38.84 °C
Activity (Rattus norvegicus [6]): 38.91 °C
Activity (Rattus norvegicus [7]): 38.91 °C
Activity (Rattus norvegicus [8]): 4.7%
Activity (Mus musculus [9]): 3.28%
Activity (Mus musculus [10]): 5.39%
